Reference: ChEMBL document CHEMBL5705899 (Biochem J, 2014)
Activity calls are given as the source filed them. The rule behind the calls is not given here.

Tests used:
[1] = target: Serine/threonine-protein kinase MRCK alpha (Homo sapiens) (UniProt Q5VT25); test: Inhibition of human CDC42BPA at 1 uM using RB-S6P as substrate in presence of 33P-ATP by ProQinase assay
Homo sapiens = organism: Homo sapiens; test: Inhibition of recombinant human MKK1 (2 to 393 residues) expressed in Escherichia coli assessed as remaining activity at 1 uM using MBP as substrate incubated for 30 mins in presence of [gamma-33P]ATP by filter binding method relative to control
[2] = target: Proto-oncogene tyrosine-protein kinase Src (Homo sapiens) (UniProt P12931); test: Inhibition of recombinant human N-terminal His6-tagged SRC (1 to 536 residues) expressed in baculovirus infected Sf21 cells assessed as remaining activity at 1 uM using KVEKIGEGTYGVVYK as substrate incubated for 30 mins in presence of [gamma-33P]ATP by filter binding method relative to control
[3] = target: Tyrosine-protein kinase JAK1 (Homo sapiens) (UniProt P23458); test: Inhibition of human JAK1 at 1 uM using RBER-IRStide as substrate in presence of 33P-ATP by ProQinase assay
[4] = target: Ribosomal protein S6 kinase alpha-1 (Homo sapiens) (UniProt Q15418); test: Inhibition of recombinant human N-terminal His6-tagged RSK1 (1 to 735 residues) expressed in baculovirus infected Sf21 cells assessed as remaining activity at 1 uM using KKLNRTLSVA as substrate incubated for 30 mins in presence of [gamma-33P]ATP by filter binding method relative to control
[5] = target: Serine/threonine-protein kinase MARK1 (Homo sapiens) (UniProt Q9P0L2); test: Inhibition of human MARK1 at 1 uM using RBER-CHKtide as substrate in presence of 33P-ATP by ProQinase assay
[6] = target: Tyrosine-protein kinase Lck (Homo sapiens) (UniProt P06239); test: Inhibition of recombinant human N-terminal His6-tagged LCK (2 to 509 residues) expressed in baculovirus infected Sf21 cells assessed as remaining activity at 1 uM using KVEKIGEGTYGVVYK as substrate incubated for 30 mins in presence of [gamma-33P]ATP by filter binding method relative to control
[7] = target: STE20-like serine/threonine-protein kinase (Homo sapiens) (UniProt Q9H2G2); test: Inhibition of human SLK at 1 uM using RB-S6P as substrate in presence of 33P-ATP by ProQinase assay
[8] = target: Serine/threonine-protein kinase BRSK2 (Homo sapiens) (UniProt Q8IWQ3); test: Inhibition of recombinant human N-terminal His6-tagged BRSK2 (2 to 674 residues) expressed in baculovirus infected Sf21 cells assessed as remaining activity at 1 uM using KKLNRTLSFAEPG as substrate incubated for 30 mins in presence of [gamma-33P]ATP by filter binding method relative to control
[9] = target: MAP kinase-activated protein kinase 3 (Homo sapiens) (UniProt Q16644); test: Inhibition of recombinant human N-terminal GST-tagged MAPKAPK3 (2 to 382 residues) expressed in Escherichia coli assessed as remaining activity at 1 uM using KKLNRTLSVA as substrate incubated for 30 mins in presence of [gamma-33P]ATP by filter binding method relative to control
[10] = target: Serine/threonine-protein kinase Nek2 (Homo sapiens) (UniProt P51955); test: Inhibition of recombinant human N-terminal His6-tagged NEK2A (1 to 445 residues) expressed in baculovirus infected Sf21 cells assessed as remaining activity at 1 uM using RFRRSRRMI as substrate incubated for 30 mins in presence of [gamma-33P]ATP by filter binding method relative to control
[11] = target: Aurora kinase C (Homo sapiens) (UniProt Q9UQB9); test: Inhibition of human AuroraC at 1 uM using bio-4xCHKT as substrate in presence of 33P-ATP by ProQinase assay
[12] = target: Fibroblast growth factor receptor 2 (Homo sapiens) (UniProt P21802); test: Inhibition of human FGFR2 at 1 uM using polyEY as substrate in presence of 33P-ATP by ProQinase assay
[13] = target: Dual specificity tyrosine-phosphorylation-regulated kinase 1B (Homo sapiens) (UniProt Q9Y463); test: Inhibition of human DYRK1B at 1 uM using RBER-CHKtide as substrate in presence of 33P-ATP by ProQinase assay
[14] = target: Serine/threonine-protein kinase WNK1 (Homo sapiens) (UniProt Q9H4A3); test: Inhibition of recombinant human WNK1 (1 to 661 residues) expressed in baculovirus infected Sf21 cells assessed as remaining activity at 1 uM using YLRRRLSDSNF as substrate incubated for 30 mins in presence of [gamma-33P]ATP by filter binding method relative to control
[15] = target: T1, 3-phosphoinositide-dependent protein kinase 1 (Homo sapiens) (UniProt O15530); test: Inhibition of recombinant human His6-tagged PDK1 (52 to 556 residues) expressed in baculovirus infected Sf21 cells assessed as remaining activity at 1 uM using PDKtide as substrate incubated for 30 mins in presence of [gamma-33P]ATP by filter binding method relative to control
T1 sequence (whole entry): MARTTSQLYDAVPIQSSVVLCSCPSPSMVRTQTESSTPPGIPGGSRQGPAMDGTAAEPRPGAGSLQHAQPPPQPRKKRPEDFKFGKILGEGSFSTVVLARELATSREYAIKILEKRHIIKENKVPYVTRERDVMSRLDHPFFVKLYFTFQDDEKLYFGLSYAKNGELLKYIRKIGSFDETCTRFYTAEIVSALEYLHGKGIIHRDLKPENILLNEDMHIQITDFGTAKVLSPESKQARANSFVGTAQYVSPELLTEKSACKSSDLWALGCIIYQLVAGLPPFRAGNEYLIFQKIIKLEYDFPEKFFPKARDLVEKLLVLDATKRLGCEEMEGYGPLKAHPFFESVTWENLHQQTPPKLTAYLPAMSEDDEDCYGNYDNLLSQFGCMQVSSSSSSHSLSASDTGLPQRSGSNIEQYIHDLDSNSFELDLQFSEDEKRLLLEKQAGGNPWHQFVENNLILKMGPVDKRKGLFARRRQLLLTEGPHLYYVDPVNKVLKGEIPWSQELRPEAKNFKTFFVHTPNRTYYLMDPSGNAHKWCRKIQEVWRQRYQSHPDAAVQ

[16] = target: Diacylglycerol kinase kappa (Homo sapiens) (UniProt Q5KSL6); test: Inhibition of DGKkappa (unknown origin) at 1 uM
[17] = target: Receptor-type tyrosine-protein kinase FLT3 (Homo sapiens) (UniProt P36888); test: Inhibition of human FLT3 at 1 uM using Poly(Ala,Glu,Lys,Tyr) as substrate in presence of 33P-ATP by ProQinase assay
[18] = target: Choline kinase alpha (Homo sapiens) (UniProt P35790); test: Inhibition of recombinant human N-terminal GST-tagged CHKalpha (1 to 457 residues) expressed in Escherichia coli at 1 uM using choline chloride as substrate incubated for 40 mins by ADP-Glo assay
Chain of Choline kinase alpha (Homo sapiens) (P35790 whole entry, looked up, the tested form may be a part): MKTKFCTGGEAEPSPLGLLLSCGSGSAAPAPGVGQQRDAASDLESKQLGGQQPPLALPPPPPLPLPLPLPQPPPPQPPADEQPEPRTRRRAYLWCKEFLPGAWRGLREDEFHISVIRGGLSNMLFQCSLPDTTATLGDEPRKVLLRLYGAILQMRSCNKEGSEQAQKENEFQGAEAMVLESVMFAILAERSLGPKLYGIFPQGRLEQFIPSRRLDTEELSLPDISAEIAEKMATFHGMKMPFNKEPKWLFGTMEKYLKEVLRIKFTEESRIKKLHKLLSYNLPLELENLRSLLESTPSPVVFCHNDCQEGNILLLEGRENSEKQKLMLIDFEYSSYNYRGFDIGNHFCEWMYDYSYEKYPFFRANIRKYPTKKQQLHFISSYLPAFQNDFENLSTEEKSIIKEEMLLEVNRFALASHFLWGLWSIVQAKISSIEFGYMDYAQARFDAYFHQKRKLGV

Chain of Serine/threonine-protein kinase MRCK alpha (Homo sapiens) (Q5VT25 whole entry, the tested form may be a part): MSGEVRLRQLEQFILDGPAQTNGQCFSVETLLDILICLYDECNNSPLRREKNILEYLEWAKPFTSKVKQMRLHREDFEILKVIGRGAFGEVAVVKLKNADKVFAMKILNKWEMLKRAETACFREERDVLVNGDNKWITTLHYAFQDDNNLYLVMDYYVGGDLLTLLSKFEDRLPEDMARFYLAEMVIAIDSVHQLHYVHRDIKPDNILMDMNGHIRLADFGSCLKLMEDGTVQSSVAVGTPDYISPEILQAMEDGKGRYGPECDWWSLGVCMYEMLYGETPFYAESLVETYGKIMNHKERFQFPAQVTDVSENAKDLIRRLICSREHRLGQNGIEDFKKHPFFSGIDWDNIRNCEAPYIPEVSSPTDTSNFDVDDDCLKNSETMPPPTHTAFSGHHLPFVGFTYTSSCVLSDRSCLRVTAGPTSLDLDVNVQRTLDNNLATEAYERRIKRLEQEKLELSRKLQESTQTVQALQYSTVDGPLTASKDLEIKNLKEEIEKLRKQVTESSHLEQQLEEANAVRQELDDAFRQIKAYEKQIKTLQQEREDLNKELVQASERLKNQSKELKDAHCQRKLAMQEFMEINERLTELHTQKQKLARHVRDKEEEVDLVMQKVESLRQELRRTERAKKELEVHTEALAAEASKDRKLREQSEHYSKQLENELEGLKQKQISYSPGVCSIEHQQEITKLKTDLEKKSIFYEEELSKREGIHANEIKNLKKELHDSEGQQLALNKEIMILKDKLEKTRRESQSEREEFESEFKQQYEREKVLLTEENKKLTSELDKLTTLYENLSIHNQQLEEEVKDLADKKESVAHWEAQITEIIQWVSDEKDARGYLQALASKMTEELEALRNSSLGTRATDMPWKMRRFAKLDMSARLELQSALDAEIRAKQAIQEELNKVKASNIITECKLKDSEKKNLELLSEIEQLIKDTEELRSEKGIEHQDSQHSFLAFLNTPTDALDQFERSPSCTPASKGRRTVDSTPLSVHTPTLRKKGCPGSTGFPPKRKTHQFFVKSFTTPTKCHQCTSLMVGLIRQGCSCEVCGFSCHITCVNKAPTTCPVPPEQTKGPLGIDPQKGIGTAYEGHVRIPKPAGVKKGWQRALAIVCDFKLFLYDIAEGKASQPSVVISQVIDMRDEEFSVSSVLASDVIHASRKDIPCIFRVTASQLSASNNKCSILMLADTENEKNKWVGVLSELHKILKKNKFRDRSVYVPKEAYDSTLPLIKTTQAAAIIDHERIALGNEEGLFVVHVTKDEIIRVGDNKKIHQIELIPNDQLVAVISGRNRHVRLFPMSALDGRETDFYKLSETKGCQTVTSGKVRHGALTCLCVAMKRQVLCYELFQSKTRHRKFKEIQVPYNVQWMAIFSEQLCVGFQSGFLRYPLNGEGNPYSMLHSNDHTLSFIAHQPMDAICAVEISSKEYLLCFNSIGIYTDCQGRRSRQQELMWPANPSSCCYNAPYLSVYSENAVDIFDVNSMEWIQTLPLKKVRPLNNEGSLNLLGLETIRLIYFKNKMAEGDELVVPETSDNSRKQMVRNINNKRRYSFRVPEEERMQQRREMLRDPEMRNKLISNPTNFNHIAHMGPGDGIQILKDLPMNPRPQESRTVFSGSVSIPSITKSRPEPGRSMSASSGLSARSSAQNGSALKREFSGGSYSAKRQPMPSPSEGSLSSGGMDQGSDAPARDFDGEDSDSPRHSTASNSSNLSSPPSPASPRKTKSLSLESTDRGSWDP
Chain of MAP kinase-activated protein kinase 3 (Homo sapiens) (Q16644 whole entry, looked up, the tested form may be a part): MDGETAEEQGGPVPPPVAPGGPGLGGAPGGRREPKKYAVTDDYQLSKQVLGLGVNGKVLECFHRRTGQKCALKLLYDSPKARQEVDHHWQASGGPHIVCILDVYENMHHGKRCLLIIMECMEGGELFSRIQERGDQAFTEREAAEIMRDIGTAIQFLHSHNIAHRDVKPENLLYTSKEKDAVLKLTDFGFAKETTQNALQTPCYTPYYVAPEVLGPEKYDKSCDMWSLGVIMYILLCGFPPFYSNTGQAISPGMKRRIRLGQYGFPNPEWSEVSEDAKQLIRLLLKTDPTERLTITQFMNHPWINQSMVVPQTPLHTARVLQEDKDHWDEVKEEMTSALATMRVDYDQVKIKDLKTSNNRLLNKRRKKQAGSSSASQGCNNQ
Chain of Ribosomal protein S6 kinase alpha-1 (Homo sapiens) (Q15418 whole entry, the tested form may be a part): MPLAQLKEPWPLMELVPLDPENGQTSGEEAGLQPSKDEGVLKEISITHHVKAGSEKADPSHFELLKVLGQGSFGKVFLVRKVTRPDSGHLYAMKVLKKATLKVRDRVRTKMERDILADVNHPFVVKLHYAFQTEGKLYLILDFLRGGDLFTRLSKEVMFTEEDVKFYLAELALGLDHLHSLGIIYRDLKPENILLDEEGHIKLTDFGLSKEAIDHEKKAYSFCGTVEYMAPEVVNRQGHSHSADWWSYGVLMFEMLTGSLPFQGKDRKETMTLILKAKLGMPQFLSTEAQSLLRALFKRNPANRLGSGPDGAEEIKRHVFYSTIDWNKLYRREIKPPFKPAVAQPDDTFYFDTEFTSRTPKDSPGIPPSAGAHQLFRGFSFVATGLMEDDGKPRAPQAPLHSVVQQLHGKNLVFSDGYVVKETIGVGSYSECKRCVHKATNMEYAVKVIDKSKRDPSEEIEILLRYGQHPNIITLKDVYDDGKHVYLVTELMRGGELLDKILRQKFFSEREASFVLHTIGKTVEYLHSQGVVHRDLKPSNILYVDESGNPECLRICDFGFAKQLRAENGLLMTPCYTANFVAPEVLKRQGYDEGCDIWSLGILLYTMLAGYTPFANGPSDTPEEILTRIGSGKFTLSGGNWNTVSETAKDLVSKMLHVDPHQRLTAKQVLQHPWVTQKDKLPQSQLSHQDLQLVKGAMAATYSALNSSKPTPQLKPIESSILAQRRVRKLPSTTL
Chain of Serine/threonine-protein kinase MARK1 (Homo sapiens) (Q9P0L2 whole entry, looked up, the tested form may be a part): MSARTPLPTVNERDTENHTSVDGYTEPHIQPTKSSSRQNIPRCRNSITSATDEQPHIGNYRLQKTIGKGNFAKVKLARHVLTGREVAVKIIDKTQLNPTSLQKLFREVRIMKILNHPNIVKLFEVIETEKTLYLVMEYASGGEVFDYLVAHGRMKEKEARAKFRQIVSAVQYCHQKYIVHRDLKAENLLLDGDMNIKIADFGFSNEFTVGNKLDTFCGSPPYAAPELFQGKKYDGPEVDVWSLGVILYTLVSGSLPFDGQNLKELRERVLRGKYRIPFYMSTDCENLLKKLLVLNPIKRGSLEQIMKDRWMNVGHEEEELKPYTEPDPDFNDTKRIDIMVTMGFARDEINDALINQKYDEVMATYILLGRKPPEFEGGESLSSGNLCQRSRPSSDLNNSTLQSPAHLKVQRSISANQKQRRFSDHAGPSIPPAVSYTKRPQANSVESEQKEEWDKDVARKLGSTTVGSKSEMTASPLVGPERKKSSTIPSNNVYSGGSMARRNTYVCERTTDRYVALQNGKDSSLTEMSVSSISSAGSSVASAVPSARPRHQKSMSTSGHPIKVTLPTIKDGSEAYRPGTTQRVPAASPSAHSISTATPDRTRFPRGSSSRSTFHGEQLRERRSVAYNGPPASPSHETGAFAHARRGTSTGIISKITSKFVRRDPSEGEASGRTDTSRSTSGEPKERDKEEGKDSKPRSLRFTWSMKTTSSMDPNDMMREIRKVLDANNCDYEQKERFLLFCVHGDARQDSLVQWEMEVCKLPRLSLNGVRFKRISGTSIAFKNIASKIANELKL
Chain of Aurora kinase C (Homo sapiens) (Q9UQB9 whole entry): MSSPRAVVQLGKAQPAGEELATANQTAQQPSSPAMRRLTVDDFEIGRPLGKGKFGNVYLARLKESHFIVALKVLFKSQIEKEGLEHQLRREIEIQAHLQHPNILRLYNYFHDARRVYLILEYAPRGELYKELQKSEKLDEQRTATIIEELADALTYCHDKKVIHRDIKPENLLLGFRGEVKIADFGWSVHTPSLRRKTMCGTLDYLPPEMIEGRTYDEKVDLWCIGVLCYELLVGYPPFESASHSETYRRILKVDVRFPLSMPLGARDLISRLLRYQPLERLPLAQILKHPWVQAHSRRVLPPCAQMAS
Chain of Serine/threonine-protein kinase Nek2 (Homo sapiens) (P51955 whole entry, the tested form may be a part): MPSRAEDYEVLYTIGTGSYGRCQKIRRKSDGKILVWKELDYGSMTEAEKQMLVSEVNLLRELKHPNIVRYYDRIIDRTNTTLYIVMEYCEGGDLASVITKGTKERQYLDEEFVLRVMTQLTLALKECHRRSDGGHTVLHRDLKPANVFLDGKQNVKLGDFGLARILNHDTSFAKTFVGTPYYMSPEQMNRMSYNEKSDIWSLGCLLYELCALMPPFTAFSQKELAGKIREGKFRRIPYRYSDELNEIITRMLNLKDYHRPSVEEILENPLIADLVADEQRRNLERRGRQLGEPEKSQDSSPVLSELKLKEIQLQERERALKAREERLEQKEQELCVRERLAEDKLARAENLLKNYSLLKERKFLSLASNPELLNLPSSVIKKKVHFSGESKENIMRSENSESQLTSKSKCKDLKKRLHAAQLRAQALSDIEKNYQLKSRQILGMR

CC(C)(O)CNc1ncc(-c2ccnc(Nc3ccnc(Cl)c3)n2)c(CC2CC2)n1
inhibition [1]: inactive | Activity (Homo sapiens): 122% | Activity [2]: 84% | inhibition [3]: inactive | Activity [4]: 99% | inhibition [5]: inactive | Activity [6]: 92% | inhibition [7]: inactive | Activity [8]: 98% | Activity [9]: 115% | Activity [10]: 103% | inhibition [11]: inactive | inhibition [12]: inactive | inhibition [13]: inactive | Activity [14]: 116% | Activity [15]: 105% | inhibition [16]: inactive | inhibition [17]: inactive | inhibition [18]: inactive
